These results are taken from article PMC11400633, “Peptides inhibiting the assembly of monomeric human L‐lactate dehydrogenase into catalytically active homotetramer decrease the synthesis of lactate in cultured cells” (Protein Science : A Publication of the Protein Society, 2024).

Values joined by “and” are separate entries in the source; they are usually repeats but may differ in a detail not shown here. Equal values may be shown once. Read-outs that look alike come from different tables or passages of the source.

The subject of one assay is LDH‐5. To be noted: LDH-5 exposed to pH 2.5, incubated with peptide 2 min, then pH 7.4; ref Nadal‐Bufi et al., 2021; cited from earlier work. The source says:
In particular, the loss of activity related to the dissociation of tetrameric LDH‐A (Hermann et al., [1981]; Pasti et al., [2022]) prompts the search for peptides able to interfere with the quaternary structure of this enzyme. Peptides can indeed mimic a secondary structure element supposed to be a major determinant of the reciprocal interactions engaged by the subunits of an oligomeric protein (Wang et al., [2021]). Nevertheless, it should be noted that the effectivenes ... || Structurally speaking, the four subunits of LDH‐5 are arranged as a binary association of dimers, with their N‐ and C‐terminal regions reciprocally engaged in dimer‐dimer interactions (Read et al., [2001]). […] Moreov ...

For assay [1], the target named is T1, tetrameric LDH‐A (Homo sapiens, UniProt P00338).
T1 construct: made in house; host or cells: E. coli BL21(DE3), pET9a (NdeI/BamHI)
To be noted: previous observation, cited from earlier work. The text has this: Accordingly, monomeric LDH‐A features a rather high K m for pyruvate and, as previously mentioned, we interpret this feature as indicative of a secondary site for pyruvate, possibly engaged in the stabilization of the assembled tetramer.

For the next assay, the target named is T2, monomeric human LDH‐A (Homo sapiens, UniProt P00338).
T2 construct: made in house; host or cells: E. coli BL21(DE3), pET9a (NdeI/BamHI)
Put plainly: Steady-state kinetics of pyruvate reduction by monomeric LDH-A (assembled monomers). Format: biochemical. To be noted: variable pyruvate, 125 μM β-NADH, 9.80 nM monomer, pH 7.5, 25°C. On the procedure: (§1) To further characterize the catalytic action of monomeric LDH-A exposed to β-NADH and pyruvate, and therefore assembled into tetramer (cf. […] In addition, the kinetics of pyruvate reduction catalyzed by tetrameric LDH-A was assayed under the same conditions used for the monomeric enzyme. Structurally and functionally speaking, the availability of monomeric LDH-A does indeed provide an unprecedented and quite interesting tool to perform quantitative tests of the assembly of monomers into the corresponding catalytically active tetramer. […] In addition to this, the enzyme kinetic parameters were also determined testing reaction velocity as a function of β-NADH concentration, in the presence of 500 μM pyruvate. […] The continuous lines represent the best fit of the Michaelis-Menten equation to the experimental observations. […] The continuous lines represent the best fit of the Michaelis-Menten equation to the experimental observations. (c) Kinetic parameters determined by performing activity assays using monomeric or tetrameric LDH-A, at the indicated final concentrations. Under conditions of variable pyruvate concentration, β-NADH was always used at 125 μM. When reaction mixtures contained variable concentrations of the redox cofactor, pyruvate was invariably added at 500 μM. All the assays were performed at pH 7.5 (Tris-BisTris, 10 mM each.

Assay [2] has as its target T1, tetrameric LDH‐A. In words: Steady-state kinetics of pyruvate reduction by tetrameric LDH-A. Format: biochemical. As to conditions: variable pyruvate, 125 μM β-NADH, 2.56 nM tetramer, pH 7.5, 25°C. On the procedure:
as §1

A further assay has as its system LDH‐A. To be noted: dynamic light scattering; shift from about 240 kDa; ref Jafary et al., 2019; cited from earlier work. The source says:
(§2) In particular, the loss of activity related to the dissociation of tetrameric LDH‐A (Hermann et al., [1981]; Pasti et al., [2022]) prompts the search for peptides able to interfere with the quaternary structure of this enzyme. Peptides can indeed mimic a secondary structure element supposed to be a major determinant of the reciprocal interactions engaged by the subunits of an oligomeric protein (Wang et al., [2021]). Nevertheless, it should be noted that the effectivenes ...

The next assay addresses dimeric LDH‐B. To be noted: ref Thabault et al., 2020; read-out: K D for dimeric LDH‐B; cited from earlier work.
From the text: as §2

Ac-QNGISDLVK-NH2 [Peptide C1]: in the assay on LDH‐5, the “action against LDH‐A (in words)” value is given as “ineffective”.

For `CC(=O)C(=O)O` [pyruvate], the “K m for pyruvate, tetrameric enzyme” value at tetrameric LDH‐A [1] (ref Pasti et al., 2022) was 252 µM; at tetrameric LDH‐A [1] (ref Pettit et al., 1981), 398 µM. Besides, the “K m for pyruvate, monomeric LDH‐A (assembled monomers)” value at monomeric human LDH‐A was 561 ± 74 µM and 560 µM. Further, the “K m for pyruvate, tetrameric LDH‐A” value at tetrameric LDH‐A [2] is 271 ± 40 µM and 271 µM.

With “KVVYNV [hexamer of the literature targeting the C‐terminal region of LDH‐A]”, the “apparent LDH‐A molecular mass in the presence of peptide” value in the assay with LDH‐A is “ca. 100 kDa”.

Regarding “IYNLLK [hexamer of the literature targeting the C‐terminal region of LDH‐A]”, the “apparent LDH‐A molecular mass in the presence of peptide” value with LDH‐A is listed as “ca. 100 kDa”.

Consider ATLKEKLI, for which the Kd on dimeric LDH‐B was 1 mM.
